Laboratory results: patent US11439641B2, “Pyrimidine JAK inhibitors for the treatment of skin diseases” (THERAVANCE BIOPHARMA R&D IP, LLC, priority 2019, dated 2022)

How the values were obtained:
JAK1 = JAK1 (Homo sapiens (Human), UniProt P23458); test: Biochemical JAK and Tyk2 Kinase Assays (LanthaScreen), JAK1; conditions: 25 μM ATP (Km); pIC50 converted to pKi by Cheng-Prusoff
JAK2 = JAK2 (Homo sapiens (Human), UniProt O60674); test: Biochemical JAK and Tyk2 Kinase Assays (LanthaScreen), JAK2; conditions: 3 μM ATP (Km); pIC50 converted to pKi by Cheng-Prusoff
Procedure: (§1) Assay 1: Biochemical JAK and Tyk2 Kinase Assays
(§2) A panel of four LanthaScreen JAK biochemical assays (JAK1, 2, 3 and Tyk2) were carried in a common kinase reaction buffer (50 mM HEPES, pH 7.5, 0.01% Brij-35, 10 mM MgCl2, and 1 mM EGTA). Recombinant GST-tagged JAK enzymes and a GFP-tagged STAT1 peptide substrate were obtained from Life Technologies.
(§3) Serially or discretely diluted compounds were pre-incubated with each of the four JAK enzymes and the substrate in white 384-well microplates (Corning) at ambient temperature for 1 h. ATP was subsequently added to initiate the kinase reactions in 10 μL total volume, with 1% DMSO. The final enzyme concentrations for JAK1, 2, 3 and Tyk2 are 4.2 nM, 0.1 nM, 1 nM, and 0.25 nM respectively; the corresponding Km ATP concentrations used are 25 μM, 3 μM, 1.6 μM, and 10 μM; while the substrate concentration is 200 nM for all four assays. Kinase reactions were allowed to proceed for 1 hour at ambient temperature before a 10 μL preparation of EDTA (10 mM final concentration) and Tb-anti-pSTAT1 (pTyr701) antibody (Life Technologies, 2 nM final concentration) in TR-FRET dilution buffer (Life Technologies) was added. The plates were allowed to incubate at ambient temperature for 1 h before being read on the EnVision reader (Perkin Elmer). Emission ratio signals (520 nm/495 nm) were recorded and utilized to calculate the percent inhibition values based on DMSO and background controls.
(§4) For dose-response analysis, percent inhibition data were plotted vs. compound concentrations, and IC50 values were determined from a 4-parameter robust fit model with the Prism software (GraphPad Software). Results were expressed as pIC50 (negative logarithm of IC50) and subsequently converted to pKi (negative logarithm of dissociation constant, Ki) using the Cheng-Prusoff equation.

JAK3 = JAK3 (Homo sapiens (Human), UniProt P52333); test: Biochemical JAK and Tyk2 Kinase Assays (LanthaScreen), JAK3; conditions: 1.6 μM ATP (Km); pIC50 converted to pKi by Cheng-Prusoff
Tyk2 = Tyk2 (Homo sapiens (Human), UniProt P29597); test: Biochemical JAK and Tyk2 Kinase Assays (LanthaScreen), Tyk2; conditions: 10 μM ATP (Km); pIC50 converted to pKi by Cheng-Prusoff
Procedure: as §1, §2, §3, §4

[1] = tested on: IL-2 stimulated pSTAT5 in Tall-1 T cells; test: Inhibition of IL-2 Stimulated pSTAT5 in Tall-1 T Cells; format: cell-based; conditions: Tall-1 human T cell line, IL-2 300 ng/mL, AlphaLisa
Outline: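 Cells preincubated with compound 1 hour at 37° C, then stimulated with IL-2 (final 300 ng/mL) for 30 minutes. After lysis, pSTAT5 (Tyr694/699) read by AlphaLISA luminescence. IC50 from inhibition curves, reported as pIC50 (mean±SD).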

Caco-2 cell monolayer = test: Caco-2 Permeation Assay; format: in vitro ADME; conditions: Papp, 5 μM compound; for Cacoverap Kp 10^−6 cm/sec: A→B in the presence of 25 μM verapamil (P-gp inhibitor); for Caco Kp 10^−6 cm/sec: apical to basal (A→B)
Outline: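 Compound at 5 μM, in duplicate, crosses Caco-2 monolayers apical to basal over 120 min at 37 °C. This is run with and without 25 μM verapamil to test for P-gp efflux. Samples are quantified by LC-MS/MS, and Papp in cm/sec is calculated as dQ/(dt × area × concentration).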

Aqueous Solubility Assay = conditions: PBS buffer pH 7.4; maximum upper limit 1,000 μM
[2] = Human Liver Microsome Assay; conditions: human liver microsomes 0.1 mg/mL, 0.1 μM compound, 1 mM NADPH, 37° C.
Procedure: Assay 4: Human Liver Microsome Assay
The objective of this assay was to assess the metabolic stability of test compounds in an in vitro human liver sub-fraction. Human liver microsomes obtained from Bioreclamation-IVT (Baltimore, Md.) were thawed on ice and diluted into 0.1 M potassium phosphate buffer pH 7.4 to yield final incubation protein concentrations of 0.1 mg/mL. Test compounds (10 mM) were diluted into NADPH cofactor to yield final incubation concentrations of 0.1 μM test compound and 1 mM NADPH. Incubations were conducted at 37° C. temperature and test aliquots were taken at time points 0, 5, 8, 15, 30 and 45 minutes. Each aliquot was crashed into water with 3% formic acid and 1 μM internal standard. The resulting samples were injected onto an LC-MS/MS system for analysis.
For each incubation, the peak area of the analytes in each t0 aliquot was set to 100% and the peak areas from subsequent time point aliquots were converted to percentage of parent compound remaining relative to t0. The percentage of parent compound remaining was converted to natural log scale and plotted versus time in minutes. A linear regression analysis was performed for the initial decline of the parent disappearance profile and a formula for the best-fit line determined. The slope of the resultant line was normalized to protein concentration in mg/mL protein or number of cells/mL and CLint was calculated as follows for liver microsomes: CLint(μL·min^−1·mg^−1)=(Slope×1000)/[protein,mg/mL]
CLint values from 9-49 μl/min/mg represent moderate clearance (i.e. 30-70% of hepatic blood flow in human) and values >50 μl/min/mg represent high hepatic clearance (i.e. >70% of hepatic blood flow in human).

[3] = Solubility Assay in Organic Excipients; conditions: maximum upper limit 20,000 μM; for Solubility in MCT (mg/mL): medium chain triglycerides (MCT)

Chain of JAK1 (P23458 whole entry): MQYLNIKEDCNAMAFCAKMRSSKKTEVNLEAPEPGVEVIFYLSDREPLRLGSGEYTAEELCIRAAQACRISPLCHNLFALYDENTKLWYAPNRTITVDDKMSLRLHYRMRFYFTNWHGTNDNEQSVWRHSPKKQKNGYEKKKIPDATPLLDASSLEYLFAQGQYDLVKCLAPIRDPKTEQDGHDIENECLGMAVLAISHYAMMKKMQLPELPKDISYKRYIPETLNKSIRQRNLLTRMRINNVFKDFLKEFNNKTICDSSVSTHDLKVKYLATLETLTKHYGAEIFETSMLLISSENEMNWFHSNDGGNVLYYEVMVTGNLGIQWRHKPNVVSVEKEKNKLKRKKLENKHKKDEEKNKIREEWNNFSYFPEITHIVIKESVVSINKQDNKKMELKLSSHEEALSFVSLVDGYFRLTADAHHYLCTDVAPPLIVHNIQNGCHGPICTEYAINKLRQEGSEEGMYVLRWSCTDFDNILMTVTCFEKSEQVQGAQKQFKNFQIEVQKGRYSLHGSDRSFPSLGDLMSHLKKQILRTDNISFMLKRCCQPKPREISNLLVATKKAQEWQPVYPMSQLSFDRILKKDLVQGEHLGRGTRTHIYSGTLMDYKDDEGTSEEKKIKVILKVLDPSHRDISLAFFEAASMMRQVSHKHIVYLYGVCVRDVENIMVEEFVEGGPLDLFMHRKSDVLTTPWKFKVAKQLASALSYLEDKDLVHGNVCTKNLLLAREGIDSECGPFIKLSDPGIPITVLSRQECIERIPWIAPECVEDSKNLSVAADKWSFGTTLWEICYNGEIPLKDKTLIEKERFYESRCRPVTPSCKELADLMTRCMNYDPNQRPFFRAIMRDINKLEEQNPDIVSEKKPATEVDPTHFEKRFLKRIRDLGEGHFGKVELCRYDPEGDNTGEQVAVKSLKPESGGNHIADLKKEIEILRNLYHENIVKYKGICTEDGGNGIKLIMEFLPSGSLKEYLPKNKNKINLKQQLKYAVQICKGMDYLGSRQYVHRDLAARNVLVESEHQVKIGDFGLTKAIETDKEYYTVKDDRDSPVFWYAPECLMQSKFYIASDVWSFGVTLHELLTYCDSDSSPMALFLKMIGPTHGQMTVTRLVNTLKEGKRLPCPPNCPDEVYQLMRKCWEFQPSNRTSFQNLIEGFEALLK
Chain of JAK3 (P52333 whole entry): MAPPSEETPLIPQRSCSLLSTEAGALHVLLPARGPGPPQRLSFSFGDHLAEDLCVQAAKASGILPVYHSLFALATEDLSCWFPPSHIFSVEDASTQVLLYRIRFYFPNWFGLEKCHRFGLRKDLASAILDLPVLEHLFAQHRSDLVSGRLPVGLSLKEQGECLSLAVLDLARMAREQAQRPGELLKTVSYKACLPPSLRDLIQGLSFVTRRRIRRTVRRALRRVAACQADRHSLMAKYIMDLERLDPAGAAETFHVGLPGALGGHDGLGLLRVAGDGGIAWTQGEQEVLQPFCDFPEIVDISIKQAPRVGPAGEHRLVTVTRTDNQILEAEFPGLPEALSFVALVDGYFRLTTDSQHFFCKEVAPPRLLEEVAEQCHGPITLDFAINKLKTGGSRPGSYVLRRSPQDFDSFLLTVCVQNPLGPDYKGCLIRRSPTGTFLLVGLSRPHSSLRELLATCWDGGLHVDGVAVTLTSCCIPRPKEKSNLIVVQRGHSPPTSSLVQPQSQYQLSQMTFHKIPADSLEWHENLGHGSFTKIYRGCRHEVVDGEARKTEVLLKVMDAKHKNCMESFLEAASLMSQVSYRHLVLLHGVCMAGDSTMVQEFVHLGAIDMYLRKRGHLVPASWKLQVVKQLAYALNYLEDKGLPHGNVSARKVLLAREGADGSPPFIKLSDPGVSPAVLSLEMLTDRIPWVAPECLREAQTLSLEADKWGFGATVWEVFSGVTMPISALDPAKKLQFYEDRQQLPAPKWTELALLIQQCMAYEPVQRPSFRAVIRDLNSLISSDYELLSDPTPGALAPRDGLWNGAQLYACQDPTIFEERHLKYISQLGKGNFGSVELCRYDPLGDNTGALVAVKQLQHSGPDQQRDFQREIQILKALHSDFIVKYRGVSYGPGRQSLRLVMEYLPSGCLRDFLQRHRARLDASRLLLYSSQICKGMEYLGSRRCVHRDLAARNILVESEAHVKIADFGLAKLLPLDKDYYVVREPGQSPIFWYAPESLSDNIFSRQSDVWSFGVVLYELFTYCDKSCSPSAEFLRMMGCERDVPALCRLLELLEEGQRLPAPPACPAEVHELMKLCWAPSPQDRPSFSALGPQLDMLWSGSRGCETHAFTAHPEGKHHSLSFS
Chain of Tyk2 (P29597 whole entry): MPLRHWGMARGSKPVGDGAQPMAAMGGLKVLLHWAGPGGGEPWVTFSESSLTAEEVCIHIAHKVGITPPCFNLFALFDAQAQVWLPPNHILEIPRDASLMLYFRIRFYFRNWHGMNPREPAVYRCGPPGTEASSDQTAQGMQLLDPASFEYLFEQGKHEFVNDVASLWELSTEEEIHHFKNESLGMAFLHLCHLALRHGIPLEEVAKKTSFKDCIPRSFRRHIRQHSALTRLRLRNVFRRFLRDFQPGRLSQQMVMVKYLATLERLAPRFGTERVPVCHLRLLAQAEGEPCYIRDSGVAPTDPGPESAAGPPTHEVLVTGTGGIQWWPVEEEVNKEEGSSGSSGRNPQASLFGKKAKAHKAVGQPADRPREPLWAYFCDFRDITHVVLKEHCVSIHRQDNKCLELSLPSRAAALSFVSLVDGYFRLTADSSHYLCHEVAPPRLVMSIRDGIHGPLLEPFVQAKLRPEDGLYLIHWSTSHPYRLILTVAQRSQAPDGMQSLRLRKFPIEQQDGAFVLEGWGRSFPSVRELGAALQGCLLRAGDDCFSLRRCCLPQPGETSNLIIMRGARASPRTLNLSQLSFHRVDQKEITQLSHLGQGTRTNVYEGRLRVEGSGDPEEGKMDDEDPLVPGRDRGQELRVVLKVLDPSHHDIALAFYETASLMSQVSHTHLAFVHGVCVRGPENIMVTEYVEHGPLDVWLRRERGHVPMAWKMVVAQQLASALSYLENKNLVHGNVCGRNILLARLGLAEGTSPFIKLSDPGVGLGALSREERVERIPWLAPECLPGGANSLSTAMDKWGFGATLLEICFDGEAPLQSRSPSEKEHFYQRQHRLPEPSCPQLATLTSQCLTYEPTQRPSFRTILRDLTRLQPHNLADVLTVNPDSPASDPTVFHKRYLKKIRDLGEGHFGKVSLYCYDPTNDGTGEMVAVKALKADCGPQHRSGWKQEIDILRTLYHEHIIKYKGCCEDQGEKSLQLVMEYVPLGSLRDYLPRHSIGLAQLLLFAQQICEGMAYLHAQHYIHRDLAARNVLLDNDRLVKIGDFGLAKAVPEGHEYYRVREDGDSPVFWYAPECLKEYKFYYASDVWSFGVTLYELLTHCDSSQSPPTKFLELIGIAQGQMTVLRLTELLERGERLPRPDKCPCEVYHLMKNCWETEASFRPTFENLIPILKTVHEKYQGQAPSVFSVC
Chain of JAK2 (O60674 whole entry): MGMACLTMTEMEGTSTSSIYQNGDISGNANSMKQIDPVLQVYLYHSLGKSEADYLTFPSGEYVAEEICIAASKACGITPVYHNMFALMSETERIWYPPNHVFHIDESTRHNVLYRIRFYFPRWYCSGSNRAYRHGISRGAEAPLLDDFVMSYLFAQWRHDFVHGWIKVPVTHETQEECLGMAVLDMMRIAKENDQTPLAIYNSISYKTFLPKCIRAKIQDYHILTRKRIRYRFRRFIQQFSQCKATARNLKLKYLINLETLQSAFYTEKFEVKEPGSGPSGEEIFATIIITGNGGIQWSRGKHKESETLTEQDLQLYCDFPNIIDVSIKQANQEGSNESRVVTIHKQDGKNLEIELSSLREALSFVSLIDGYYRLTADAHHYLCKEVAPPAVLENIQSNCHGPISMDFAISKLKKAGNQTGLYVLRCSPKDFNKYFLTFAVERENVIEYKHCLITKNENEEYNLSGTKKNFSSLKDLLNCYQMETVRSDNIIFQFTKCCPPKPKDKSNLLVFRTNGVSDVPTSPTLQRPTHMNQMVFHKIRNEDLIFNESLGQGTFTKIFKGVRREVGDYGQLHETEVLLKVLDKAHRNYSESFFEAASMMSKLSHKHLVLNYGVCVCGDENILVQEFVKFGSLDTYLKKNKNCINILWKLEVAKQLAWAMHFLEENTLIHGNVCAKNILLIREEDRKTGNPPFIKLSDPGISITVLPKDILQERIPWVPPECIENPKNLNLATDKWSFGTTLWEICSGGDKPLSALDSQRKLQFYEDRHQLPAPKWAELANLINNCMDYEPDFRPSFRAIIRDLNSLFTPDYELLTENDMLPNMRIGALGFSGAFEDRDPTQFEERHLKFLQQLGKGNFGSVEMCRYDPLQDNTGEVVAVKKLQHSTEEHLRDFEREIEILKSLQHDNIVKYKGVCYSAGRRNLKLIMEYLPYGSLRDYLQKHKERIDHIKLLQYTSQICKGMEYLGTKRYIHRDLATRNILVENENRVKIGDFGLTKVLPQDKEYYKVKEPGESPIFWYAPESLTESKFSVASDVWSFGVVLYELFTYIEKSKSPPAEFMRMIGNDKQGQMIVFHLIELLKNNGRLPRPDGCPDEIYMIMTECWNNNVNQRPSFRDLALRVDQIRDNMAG

SMILES	JAK 1 (pKi) (JAK1)	JAK 2 (pKi) (JAK2)	JAK 3 (pKi) (JAK3)	Tyk 2 (pKi) (Tyk2)	Tall-1 IL2 pSTAT5 (pIC50) [1]	Cacoverap Kp 10^−6 cm/sec (Caco-2 cell monolayer)	Caco Kp 10^−6 cm/sec (Caco-2 cell monolayer)	Solubility at PH 7.4 (μmol) (Aqueous Solubility Assay)	HLM Clin μL/min/mg [2]	Solubility in PEG400 (mg/mL) [3]	Solubility in Diisopropyl adipate (mg/mL) [3]	Solubility in MCT (mg/mL) [3]	Solubility in Propylene glycol (mg/mL) [3]
CCS(=O)(=O)N1[C@@H]2CCC[C@H]1C[C@H](N(C)c1nc(Nc3cc(C)[nH]n3)cc([C@H]3CCCO3)n1)C2 [Compound 9]	A (A represents a pKi value ≥10 (Ki≤0.1 nM))	A (A represents a pKi value ≥10 (Ki≤0.1 nM))	B (B represents a pKi value between 9 and 10 (Ki between 1 nM and 0.1 nM))	A (A represents a pKi value ≥10 (Ki≤0.1 nM))	A (A represents a pIC50 value ≥8.0)	A (A represents a value above 35×10^−6 cm/sec)	A (A represents a value above 30×10^−6 cm/sec)	C (C represents a value between 50 and 250)	A (A represents a Clint value between 1250 and 3000)				
COC(=O)N1[C@@H]2CCC[C@H]1C[C@H](N(C)c1nc(Nc3cc(C)[nH]n3)cc(C3CCCO3)n1)C2 (stereo partly drawn) [Compound 11, methyl (1R,3s,5S)-3-(methyl(4-((5-methyl-1H-pyrazol-3-yl)amino)-6-(tetrahydrofuran-2-yl)pyrimidin-2-yl)amino)-9-azabicyclo[3.3.1]nonane-9-carboxylate]	A (A represents a pKi value ≥10 (Ki≤0.1 nM))	B (B represents a pKi value between 9 and 10 (Ki between 1 nM and 0.1 nM))	C (C represents a pKi value between 8 and 9 (Ki between 10 nM and 1 nM))	B (B represents a pKi value between 9 and 10 (Ki between 1 nM and 0.1 nM))	A (A represents a pIC50 value ≥8.0)	B (B represents a value between 20×10^−6 and 35×10^−6 cm/sec)	B (B represents a value between 15×10^−6 and 30×10^−6 cm/sec)	C (C represents a value between 50 and 250)		A (A represents a value above 10)	A (A represents a value above 10)	B (B represents a value between 5 and 10)	A (A represents a value above 10)
Cc1cc(Nc2cc(C3CCCO3)nc(N(C)[C@@H]3C[C@H]4CCC[C@@H](C3)N4C(=O)OC3CCOCC3)n2)n[nH]1 (stereo partly drawn) [Compound 14, tetrahydro-2H-pyran-4-yl (1R,3s,5S)-3-(methyl(4-((5-methyl-1H-pyrazol-3-yl)amino)-6-(tetrahydrofuran-2-yl)pyrimidin-2-yl)amino)-9-azabicyclo[3.3.1]nonane-9-carboxylate]	A (A represents a pKi value ≥10 (Ki≤0.1 nM))	A (A represents a pKi value ≥10 (Ki≤0.1 nM))	C (C represents a pKi value between 8 and 9 (Ki between 10 nM and 1 nM))	B (B represents a pKi value between 9 and 10 (Ki between 1 nM and 0.1 nM))	B (B represents a pIC50 value between 7.5 (included) and 8.0)	B (B represents a value between 20×10^−6 and 35×10^−6 cm/sec)	B (B represents a value between 15×10^−6 and 30×10^−6 cm/sec)	D (D represents a value between 10 and 50)		A (A represents a value above 10)	A (A represents a value above 10)	B (B represents a value between 5 and 10)	A (A represents a value above 10)
CCS(=O)(=O)N1[C@@H]2CCC[C@H]1C[C@H](N(C)c1nc(Nc3cc(C)[nH]n3)cc(C3CCOC3)n1)C2 (stereo partly drawn) [Compound 5, N^2-((1R,3s,5S)-9-(ethylsulfonyl)-9-azabicyclo[3.3.1]nonan-3-yl)-N2-methyl-N4-(5-methyl-1H-pyrazol-3-yl)-6-(tetrahydrofuran-3-yl)pyrimidine-2,4-diamine]	A (A represents a pKi value ≥10 (Ki≤0.1 nM))		B (B represents a pKi value between 9 and 10 (Ki between 1 nM and 0.1 nM))		A (A represents a pIC50 value ≥8.0)	A (A represents a value above 35×10^−6 cm/sec)	A (A represents a value above 30×10^−6 cm/sec)	E (E represents a value below 10)	A (A represents a Clint value between 1250 and 3000)	A (A represents a value above 10)	B (B represents a value between 5 and 10)	C (C represents a value below 5)	A (A represents a value above 10)
CCS(=O)(=O)N1[C@@H]2CCC[C@H]1C[C@H](N(C)c1nc(Nc3cc(C)[nH]n3)cc([C@@H]3CCCO3)n1)C2 [Compound 10]	A (A represents a pKi value ≥10 (Ki≤0.1 nM))	A (A represents a pKi value ≥10 (Ki≤0.1 nM))	B (B represents a pKi value between 9 and 10 (Ki between 1 nM and 0.1 nM))	A (A represents a pKi value ≥10 (Ki≤0.1 nM))	A (A represents a pIC50 value ≥8.0)	A (A represents a value above 35×10^−6 cm/sec)	A (A represents a value above 30×10^−6 cm/sec)	C (C represents a value between 50 and 250)	A (A represents a Clint value between 1250 and 3000)				
